This assay has as its system HCT116 tumor cells (colon tumor cells). Description: HCT116 colon tumor model, anti-alpha5beta1 + chemotherapy. The settings on record: chemotherapeutic agent by itself. Format: in vivo, HRLN female nu/nu mice. Here is the method: HRLN female nu/nu mice were injected with 5×10^6 HCT116 tumor cells (colon tumor cells) subcutaneously in their flanks. Tumors were allowed to grow until they reach an average size of 80-120 cubic mm before treatment with therapies. Tumor bearing mice were then divided into 4 groups:
Tumor volume measurement was carried out twice a week using a standard caliper measurement method. The hamster anti-mouse integrin alpha5 mab, known as 10E7, was generated at Genentech. Body weight was measured 5 times over 2 days then twice per week (biwk) to the end of the study. The endpoint of the experiment was a tumor volume of 1.5 gms or 60 days, whichever came first. Some responders were followed longer. When the endpoint was reached, the animals were euthanized. The dosing volume was 10 mL/kg (0.200 ml/20 g mouse), which volume was adjusted for body weight. 10E7 was administered 30 minutes before irinotecan administration. For animals showing complete regression (CR), tissues at the site of tumor implantation were collected at endpoint and preserved in formulin followed by 70% EtOH for later study. All samples to be frozen were placed in a cryomold, wrapped in foil & snap frozen on liquid nitrogen.

`CCc1c2c(nc3ccc(OC(=O)N4CCC(N5CCCCC5)CC4)cc13)-c1cc3c(c(=O)n1C2)COC(=O)[C@]3(O)CC` [irinotecan]: the vascular damage entry is reported as “did not cause significant vascular damage”.

Values taken from patent publication US8350010B2, “Anti-alpha5/beta1 antibody” (Genentech, Inc., priority 2006, dated 2013).
